Measurements published in ChEMBL document CHEMBL1201862, “PubChem BioAssay data set” (2004).
“And” between values parts separate entries of the source, which are not always exact repeats. Equal values may be shown once.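 Tested at 5 concentrations; 48 h exposure; 96-well plates; endpoints linearly interpolated, else capped at highest concentration. At the GI50, growth is halved.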 The source made the active and inactive calls. No stated cut-off is given here; in the data, active = GI50 up to about 1.1 µM and inactive = higher.

Legend:
Experiment in all cases: NCI anticancer screen, dose series, 48 h
SF-268 = tested on: SF-268
NCI-H460 = tested on: NCI-H460
ACHN = tested on: ACHN
CAKI-1 = tested on: CAKI-1
Malme-3M = tested on: Malme-3M
HOP-62 = tested on: HOP-62
UACC-62 = tested on: UACC-62
K562 = tested on: K562
786-0 = tested on: 786-0
LOX IMVI = tested on: LOX IMVI
DLD-1 = tested on: DLD-1
SNB-19 = tested on: SNB-19
SK-MEL-5 = tested on: SK-MEL-5
RXF 393 = tested on: RXF 393
SF-539 = tested on: SF-539
Hs-578T = tested on: Hs-578T
NCI-H522 = tested on: NCI-H522
NCI-H226 = tested on: NCI-H226
BT-549 = tested on: BT-549
MDA-N = tested on: MDA-N

| Compound | GI50 (SF-268) | GI50 (NCI-H460) | GI50 (ACHN) | GI50 (CAKI-1) | GI50 (Malme-3M) | GI50 (HOP-62) | GI50 (UACC-62) | GI50 (K562) | GI50 (786-0) | GI50 (LOX IMVI) | GI50 (DLD-1) | GI50 (SNB-19) | GI50 (SK-MEL-5) | GI50 (RXF 393) | GI50 (SF-539) | GI50 (Hs-578T) | GI50 (NCI-H522) | GI50 (NCI-H226) | GI50 (BT-549) | GI50 (MDA-N) |
| --- | --- | --- | --- | --- | --- | --- | --- | --- | --- | --- | --- | --- | --- | --- | --- | --- | --- | --- | --- | --- |
| C=C(C)CC(C(=O)O)c1ccc(C)cc1 (centres undefined) | > 100 µM (inactive) | > 100 µM (inactive) | > 100 µM (inactive) | > 100 µM (inactive) | > 100 µM (inactive) | > 100 µM (inactive) | > 100 µM (inactive) | > 100 µM (inactive) | > 100 µM (inactive) | > 100 µM (inactive) | > 100 µM (inactive) | > 100 µM (inactive) | > 100 µM (inactive) | > 100 µM (inactive) | > 100 µM (inactive) |  |  |  |  |  |
| CC(=O)OCC1OC(n2c(C)c(C)cc(C#N)c2=S)C(OC(C)=O)C(OC(C)=O)C1OC(C)=O (centres undefined) | 60.5 µM (inactive) | > 100 µM (inactive) | > 100 µM (inactive) | > 100 µM (inactive) | > 100 µM (inactive) | > 100 µM (inactive) and 91 µM (inactive) | 65.2 µM (inactive) | > 100 µM (inactive) | > 100 µM (inactive) | > 100 µM (inactive) |  | > 100 µM (inactive) | > 100 µM (inactive) | > 100 µM (inactive) | > 100 µM (inactive) | > 100 µM (inactive) | > 100 µM (inactive) and 52.4 µM (inactive) | > 100 µM (inactive) | > 100 µM (inactive) | > 100 µM (inactive) |
| O=C(O)/C=C(/C(=O)O)C12CCN3CC4=CCOC5CC(=O)NC1C5C4CC32 (centres undefined) | > 100 µM (inactive) | > 100 µM (inactive) | > 100 µM (inactive) | > 100 µM (inactive) | > 100 µM (inactive) | > 100 µM (inactive) | > 100 µM (inactive) | > 100 µM (inactive) | > 100 µM (inactive) | > 100 µM (inactive) |  | > 100 µM (inactive) | > 100 µM (inactive) | > 100 µM (inactive) | > 100 µM (inactive) | > 100 µM (inactive) | > 100 µM (inactive) | > 100 µM (inactive) | > 100 µM (inactive) | > 100 µM (inactive) |
| CCOC(=O)c1cccc(/N=N/Nc2cccc(C(=O)OCC)c2)c1 | 27 µM (inactive) | 64 µM (inactive) | 53.8 µM (inactive) | 42 µM (inactive) | 43.8 µM (inactive) | 9.12 µM (inactive) | 71.8 µM (inactive) | 71.4 µM (inactive) | 17.9 µM (inactive) | > 100 µM (inactive) |  | 20.6 µM (inactive) | 23.4 µM (inactive) | 19.1 µM (inactive) | 14.2 µM (inactive) | 30.8 µM (inactive) | 23.9 µM (inactive) | 43.5 µM (inactive) | > 100 µM (inactive) | 5.66 µM (inactive) |
| N=C(N)N/N=C(\c1ccc(F)cc1)c1ccc(C(F)(F)F)cc1 | 0.593 µM (active) | 0.332 µM (active) | 0.611 µM (active) | 0.451 µM (active) | 0.851 µM (active) | 0.273 µM (active) | 0.282 µM (active) | 0.132 µM (active) | 0.294 µM (active) | 0.323 µM (active) |  | 0.573 µM (active) | 0.466 µM (active) | 0.22 µM (active) | 0.27 µM (active) | 0.36 µM (active) | 0.135 µM (active) | 0.348 µM (active) | 0.593 µM (active) | 0.0748 µM (active) |
| COc1cc2c(cc1OC)C(=O)/C(=C/c1ccccc1)C2 | 73.3 µM (inactive) | 53.7 µM (inactive) | > 100 µM (inactive) | > 100 µM (inactive) | > 83 µM (inactive) | 52.5 µM (inactive) | 30.5 µM (inactive) | 11.9 µM (inactive) | 90.6 µM (inactive) | 86.5 µM (inactive) |  | > 100 µM (inactive) | 37.2 µM (inactive) | > 34.8 µM (inactive) | 43.6 µM (inactive) | > 100 µM (inactive) | 47 µM (inactive) | > 81.8 µM (inactive) | > 100 µM (inactive) | > 93.8 µM (inactive) |
| O=c1[nH]nc(-c2ccccc2)n1/N=C\CC/C=N\n1c(-c2ccccc2)n[nH]c1=O | 26.1 µM (inactive) | > 47.6 µM (inactive) | 36.6 µM (inactive) | 49 µM (inactive) | 25.2 µM (inactive) | > 52.4 µM (inactive) | 17.6 µM (inactive) | 31.1 µM (inactive) | 26.5 µM (inactive) | 12.9 µM (inactive) |  | 45.1 µM (inactive) | 21.6 µM (inactive) | > 67.5 µM (inactive) | 27.4 µM (inactive) | 24.9 µM (inactive) | > 94.2 µM (inactive) | 24.5 µM (inactive) | 19.2 µM (inactive) | 20 µM (inactive) |
